Data set [1] relates to P2X7R. More on the design: method as in PMID 24314880. The conditions noted are these: read-out: EC50 for P2X7R activation; cited from earlier work.
The target in data set [2] is T1, mP2X7R (Mus musculus, UniProt Q9Z1M0).
T1 construct: P2X7 receptor expressed in peritoneal macrophages; endogenous in cells; host or cells: mouse peritoneal macrophages (primary)
T1 sequence (Q9Z1M0 1-595): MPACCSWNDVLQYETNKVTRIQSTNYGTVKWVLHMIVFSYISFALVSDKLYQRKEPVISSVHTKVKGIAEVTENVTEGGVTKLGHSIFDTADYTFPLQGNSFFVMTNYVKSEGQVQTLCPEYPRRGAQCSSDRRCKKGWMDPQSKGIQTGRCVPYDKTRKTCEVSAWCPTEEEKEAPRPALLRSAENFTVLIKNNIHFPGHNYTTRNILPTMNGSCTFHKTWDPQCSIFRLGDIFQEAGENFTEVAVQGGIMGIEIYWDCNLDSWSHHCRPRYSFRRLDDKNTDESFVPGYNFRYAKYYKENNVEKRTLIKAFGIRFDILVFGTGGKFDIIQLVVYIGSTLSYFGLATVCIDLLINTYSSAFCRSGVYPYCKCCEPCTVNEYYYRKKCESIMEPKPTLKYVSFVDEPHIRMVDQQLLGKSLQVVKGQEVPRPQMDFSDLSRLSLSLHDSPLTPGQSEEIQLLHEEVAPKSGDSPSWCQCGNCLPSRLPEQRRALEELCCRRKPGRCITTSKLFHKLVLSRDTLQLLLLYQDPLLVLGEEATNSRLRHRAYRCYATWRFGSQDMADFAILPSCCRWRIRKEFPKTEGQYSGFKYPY
Kind of data set: ATP-induced IL-1β release ELISA in mouse peritoneal macrophages. The conditions noted are these: LPS priming, ATP 30 min. It counts as cell-based. As for the experimental part:
(§1) The monocytic THP-1 cell line used in this experiment was donated by the Laboratory of Applied Pharmacology, Institute of Drug Technology (Farmanguinhos), Rio de Janeiro, Brazil. Cells were plated at 2 × 10^5 cells/well in 96-well culture plates maintained in RPMI containing 10% fetal bovine serum (FBS), penicillin (100 U/mL), and streptomycin ([…]) in a humidified 5% CO2 atmosphere at 37 °C. Then, the cells were primed with Escherichia coli lipopolysaccharide (LPS, serotype 0127: B8) four hours before ATP stimulation for 30 min. Mouse peritoneal macrophages were primed with 10 ng/mL interferon-γ (IFN-γ) for 24 h and posteriorly stimulated with Escherichia coli lipopolysaccharide (LPS, serotype 0127: B8). The P2X7R antagonist A740003 and naphthoquinone derivatives were preincubated for 30 min before ATP addition. IL-1β was determined according to a standard kit (Bioscience, San Diego, CA, USA and Abcam, Cambridge Biomedical Campus, Cambridge, UK).

Data set [3] has as its target T2, hP2X7R (Homo sapiens, UniProt Q99572).
T2 construct: The monocytic THP-1 cell line used in this experiment was donated; endogenous in cells; host or cells: THP-1 human monocytic cell line
T2 sequence (Q99572 1-595): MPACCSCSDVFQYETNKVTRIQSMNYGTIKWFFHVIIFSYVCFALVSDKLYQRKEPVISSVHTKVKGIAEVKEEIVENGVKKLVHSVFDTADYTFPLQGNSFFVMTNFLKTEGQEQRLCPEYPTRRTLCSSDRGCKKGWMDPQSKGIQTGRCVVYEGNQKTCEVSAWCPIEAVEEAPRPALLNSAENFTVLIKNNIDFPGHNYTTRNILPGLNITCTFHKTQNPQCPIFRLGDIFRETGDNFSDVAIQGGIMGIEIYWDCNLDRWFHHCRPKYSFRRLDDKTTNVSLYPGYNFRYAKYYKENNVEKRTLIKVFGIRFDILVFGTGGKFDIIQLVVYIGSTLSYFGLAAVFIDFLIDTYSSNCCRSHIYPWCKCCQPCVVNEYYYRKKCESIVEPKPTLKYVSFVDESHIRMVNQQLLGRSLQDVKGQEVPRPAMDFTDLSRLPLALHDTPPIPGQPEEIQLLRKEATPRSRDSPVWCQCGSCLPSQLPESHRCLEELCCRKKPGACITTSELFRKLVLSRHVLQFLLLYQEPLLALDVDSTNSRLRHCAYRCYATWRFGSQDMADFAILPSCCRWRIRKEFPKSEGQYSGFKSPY
Kind of data set: ATP-induced IL-1β release ELISA in THP-1 cells. It is filed as cell-based. Conditions: human THP-1 cells, LPS 4 h, ATP 30 min. As for the experimental part:
as §1
A general note: ELISA stands for enzyme-linked immunosorbent assay.

The target of data set [4] is T3, P2X7 receptor (Mus musculus, UniProt Q9Z1M0).
T3 construct: P2X7 receptor expressed in peritoneal macrophages; endogenous in cells; host or cells: mouse peritoneal macrophages (primary)
T3 sequence (Q9Z1M0 1-595): T1 sequence (Q9Z1M0 1-595)
Put plainly: ATP-induced propidium iodide dye uptake assay (P2X7R-associated pore formation). It is filed as cell-based. Conditions: pretreatment 10 min, 5 mM ATP 15 min, peritoneal macrophages; for Inhibition of ATP-induced PI uptake / inhibition at 10 µM: 10 µM; for inhibition at 10 µM: P2X7, read-out: Inhibition of ATP-induced PI uptake; for IC50: read-out: IC50 ATP-induced PI uptake. The method, then: (§2) The animals used in these experiments were furnished by the animal breeding unit at Pavilion Hélio and Peggy Pereira at FIOCRUZ/IOC. The Institutional Animal Ethics Committee approved all experimental protocols under number L039-2016. Peritoneal macrophages were isolated from euthanized mice (weighing between 20 and 30 g) by injection of 10 mL phosphate-buffered saline (PBS) into the peritoneum of each animal. Then, the solution was completely removed from the peritoneal cavity using a syringe and transferred to 50 mL sterile tubes. Tubes were centrifuged at 1500 rpm for 5 min. The supernatant was discarded, and the pellet was resuspended in RPMI medium supplemented with 10% SFB and 1% antibiotic. The cells were counted and seeded in plates. After 40 min, the supernatant from each well was discarded to remove cells other than macrophages, and then RPMI medium was added. The macrophages were maintained in RPMI medium supplemented with 10% SFB and 1% antibiotic in a humid atmosphere at 37 °C containing 5% CO2 during the experiments.
To evaluate P2X7R-associated pore formation, a propidium iodide (PI) uptake assay was used. Peritoneal macrophages (3.0 × 10^5/well) were incubated with naphthoquinone derivatives and the inhibitor BBG (Brilliant Blue G, Sigma-Aldrich) at 10 µM and 750 nM, respectively, for 10 min. Subsequently, cells were exposed to 5 mM ATP for 15 min, and in the last 5 min, they were incubated with 1 µM PI dye. At the end of the incubation period, fluorescence was measured using a SpectraMax M5 spectrophotometer at 493/636 nm (excitation/emission). Compounds with inhibition values higher than 50% were selected to evaluate their inhibitory activity at varying concentrations. The inhibition curve was obtained using compounds at concentrations of 0.01 µM, 1 µM, 10 µM, 50 µM, and 100 µM. The controls and the procedure were the same.

In data set [5] the test system is mouse peritoneal cells. Kind of data set: LDH release cytotoxicity assay. It counts as cell-based. The conditions noted are these: 24 h, increasing concentrations. The method, then: as §2
Peritoneal macrophages (3.0 × 10^5 cells/well) were grown in 96-well plates and kept in an oven at 37 °C under a 5% CO2 atmosphere. […] The assay was finished by the addition of the LDH kit’s reagent (Kit CytoTox 96® Non-Radioactive Cytotoxicity Assay, Promega, Madison, WI, USA), prepared according to the manufacturer’s instructions. After 30 min of reaction, a stop solution was added, and the absorbance was measured at 490 nm.

Data set [6] relates to ATP-induced paw edema. Kind of data set: ATP-induced paw edema assay. It counts as in vivo, Swiss Webster mice. The conditions noted are these: mice, intraperitoneal pretreatment, intra-plantar ATP, edema measured 30 min after ATP. As for the experimental part:
Paw edema in mice was induced by intra-plantar administration of ATP (10 mg/paw) for 30 min. Animals were pretreated intraperitoneally with the standard P2X7R antagonist A740003 (1 mg/kg) and the selected compounds PS01, PS02, PS03, PS09, and PS10 (1 mg/kg) for 60 min before ATP administration. Edema formation was determined with a mouse plethysmometer (UGO Basile, Gemonio, Italy) before ATP injection compared with saline injection in the contralateral paw edema.

In general, EC50 refers to the concentration at which the effect is half-maximal. Usually IC50 stands for the concentration at which inhibition is half-maximal. One may read the inhibition as the share of the control response that was lost under treatment.

Bounds are passed on as bounds.

For `Nc1ncnc2c1ncn2[C@@H]1O[C@H](COP(=O)(O)OP(=O)(O)OP(=O)(O)O)[C@@H](O)[C@H]1O` [ATP, Adenosine triphosphate], the EC50 in data set [1] was > 100000 nM.
Regarding `CCOc1ccc(Nc2ccc(/C(=C3C=C/C(=[N+](/CC)Cc4cccc(S(=O)(=O)[O-])c4)C=C/3C)c3ccc(N(CC)Cc4cccc(S(=O)(=O)O)c4)cc3C)cc2)cc1` [BBG, Brilliant Blue G, reference compound], the IC50 in data set [2] came to 24 ± 3 µM; in data set [3], 16 ± 2 µM.
Regarding `COc1ccc(CC(=O)NC(N=C(NC#N)Nc2cccc3ncccc23)C(C)(C)C)cc1OC` (stereo not shown) [Compound A740003, reference compound], in data set [4], the “Inhibition of ATP-induced PI uptake” value was “inhibited the ATP effect”. Further, the IC50 came to 0.9 ± 0.1 µM in data set [2] and 0.85 ± 0.1 µM in data set [3].
For `O=C1C=C(Nc2ccc(NS(=O)(=O)c3ccccc3)cc2)C(=O)c2ccccc21` [PS01], the inhibition at 10 µM in data set [4] is > 50%. For the same molecule, the concentration for half-maximal inhibition (IC50) in data set [4] worked out at 1000 ± 100 nM; in data set [2], 5 ± 1 µM; in data set [3], 4 ± 2 µM. In data set [5], the “IC50 values (CC50), LDH activity” value was determined as 201000 ± 11000 nM. Further, the “ID50 ATP−induced edema formation” value in data set [6] was 0.128 ± 0.016 µg/kg.
As to `O=C1C=C(Nc2ccc(NS(=O)(=O)c3ccc(F)cc3)cc2)C(=O)c2ccccc21` [PS02], the inhibition at 10 µM in data set [4] is > 50%. Moreover, the IC50 in data set [4] worked out at 300 ± 3 nM; in data set [2] it was 3 ± 0.2 µM; in data set [3], 3 ± 0.3 µM. In addition, the “IC50 values (CC50), LDH activity” value in data set [5] worked out at 298000 ± 16000 nM. Also, the “ID50 ATP−induced edema formation” value in data set [6] came to 0.093 ± 0.008 µg/kg.
As for `Cc1ccc(S(=O)(=O)Nc2ccc(NC3=CC(=O)c4ccccc4C3=O)cc2)cc1` [PS03], the inhibition at 10 µM in data set [4] is > 50%. The IC50 in data set [4] came out at 70 ± 3 nM; in data set [2], 1.5 ± 0.4 µM; in data set [3], 1 ± 0.4 µM. The “IC50 values (CC50), LDH activity” value in data set [5] came to 322000 ± 20000 nM. Further, the “ID50 ATP−induced edema formation” value in data set [6] was 0.067 ± 0.005 µg/kg.
Consider `O=C1C=C(Nc2ccc(NS(=O)(=O)c3ccc4ccccc4c3)cc2)C(=O)c2ccccc21` [PS04], for which, in data set [4], the “Inhibition of ATP-induced PI uptake” value is listed as “did not show inhibitory effects”.
Still for that read-out and setting: under `O=C1C=C(Nc2ccc(NS(=O)(=O)c3ccc([N+](=O)[O-])cc3)cc2)C(=O)c2ccccc21` [PS05] stands “did not show inhibitory effects”; under `O=C1C(Cl)=C(Nc2ccc(NS(=O)(=O)c3ccccc3)cc2)C(=O)c2ccccc21` [PS06], “did not show inhibitory effects”.
For `Cc1ccc(S(=O)(=O)Nc2ccc(NC3=C(Cl)C(=O)c4ccccc4C3=O)cc2)cc1` [PS07], the “Inhibition of ATP-induced PI uptake” value in data set [4] is “did not show inhibitory effects”.
Same read-out and setting: in the case of `O=C1C(Cl)=C(Nc2ccc(NS(=O)(=O)c3ccc(F)cc3)cc2)C(=O)c2ccccc21` [PS08] it was “did not show inhibitory effects”.
`O=C1C(Cl)=C(Nc2ccc(NS(=O)(=O)c3ccc4ccccc4c3)cc2)C(=O)c2ccccc21` [PS09]: the inhibition at 10 µM in data set [4] was > 50%. The half-inhibitory concentration (IC50) in data set [4] worked out at 8 ± 0.1 nM; in data set [2] it was 0.09 ± 0.01 µM; in data set [3], 0.02 ± 0.002 µM. In data set [5], the “IC50 values (CC50), LDH activity” value was found to be 401000 ± 18000 nM. Besides, the “ID50 ATP−induced edema formation” value in data set [6] was 0.0098 ± 0.0007 µg/kg.
Take `O=C1C(Cl)=C(Nc2ccc(NS(=O)(=O)c3ccc([N+](=O)[O-])cc3)cc2)C(=O)c2ccccc21` [PS10]: the inhibition at 10 µM in data set [4] was > 50%. Moreover, the results for the IC50 in data set [4], in data set [2] and in data set [3] were 10 ± 2 nM, 0.7 ± 0.1 µM and 0.3 ± 0.06 µM, respectively. Moreover, in data set [5], the “IC50 values (CC50), LDH activity” value was found to be 351000 ± 21000 nM. The “ID50 ATP−induced edema formation” value in data set [6] is 0.0136 ± 0.016 µg/kg.
As to `NC1=CC(=O)c2cccc(OS(=O)(=O)c3ccccc3)c2C1=O` [PS11], the “Inhibition of ATP-induced PI uptake” value in data set [4] was “did not show inhibitory effects”.
Same read-out and setting: under `Cc1ccc(S(=O)(=O)Oc2cccc3c2C(=O)C(N)=CC3=O)cc1` [PS12] stands “did not show inhibitory effects”; under `NC1=CC(=O)c2cccc(OS(=O)(=O)c3ccc(F)cc3)c2C1=O` [PS13], “did not show inhibitory effects”.
The same measure, in the same setting: in the case of `NC1=CC(=O)c2cccc(OS(=O)(=O)c3ccc4ccccc4c3)c2C1=O` [PS14] it was “did not show inhibitory effects”; in that of `NC1=CC(=O)c2cccc(OS(=O)(=O)c3ccc([N+](=O)[O-])cc3)c2C1=O` [PS15], “did not show inhibitory effects”.

(Values after paper PMC9866630, “Synthesis, Biological Evaluation and Molecular Modeling Studies of Naphthoquinone Sulfonamides and Sulfonate Ester Derivatives as P2X7 Inhibitors” (Molecules, 2023).)
